Assays:
HCT 116 cell lines = experiment: Cell cycle analysis (PI, FACS); assay type: cell-based, Human; conditions: standard at 25 μM
Experimental: The cell cycle analysis was followed where 1 × 10^6 cells were seeded and cultured for 24 h in a 6-well plate containing 2 ml of the media. Cells were then treated with desired concentrations of the given samples that were prepared in media and further incubated for another 24 h. Cells were then harvested and centrifuged at 2000 rpm for 5 min at room temperature and the supernatant was discarded carefully retaining the cell pellet. Cell pellet was then washed by resuspending in 2 ml of 1XPBS. The washing was repeated another time under the same conditions. Further, the supernatant was discarded retaining the pellet. Cells were then fixed by resuspending in 300 µL of Sheath fluid followed by the addition of 1 ml of chilled 70% ethanol drop by drop gently with continuous shaking and one more mL of the same at once. The cells were then stored at 4 °C overnight. Post fixing, the cells were centrifuged at 2000 rpm for 5 min washed twice with 2 ml of cold 1XPBS and suspended in 450 µL of sheath fluid containing 0.05 mg/ml PI (Propidium iodide), 0.05 mg/ml RNase A and incubated for 15 min in the dark (Kasibhatla et al. [2006]).The percentage of cells in various stages of cell cycle both in the treated as well as un-treated populations was determined using FACS Caliber (BD Biosciences, San Jose, CA).

HCT 116 = experiment: MTT cytotoxicity assay on HCT 116; assay type: cell-based, Human; conditions: Homo sapiens, HCT-116, 24 h, read-out: Inhibition of cell proliferation, IC50, HCT 116
Experimental: (§1) The monolayer cell culture was trypsinized and the cell count was adjusted to 5.0 × 10^5 cells/ml using respective media containing 10% FBS. To each well of the 96-well microtiter plate, 100 µL of the diluted cell suspension (50,000cells/well) was added. After 24 h, when a partial monolayer was formed, the supernatant was flicked off, the monolayer was then washed once again with the medium and 100 µL of different test concentrations of test drugs were added on to the partial monolayer in microtiter plates. The plates were then incubated at 37 °C for 24 h in 5% CO2 atmosphere. After incubation, the test solutions in the wells were discarded and 100 µL of MTT (5 mg/10 ml of MTT in PBS) was added to each well. The plates were then incubated for 4 h at 37 °C in 5% CO2 atmosphere. The supernatant was then removed and 100 µL of DMSO was added and the plates were gently shaken to solubilize the formed formazan. The absorbance was measured using a microtiter plate reader at a wavelength of 590 nm. The percentage growth inhibition was thus calculated using the following formula and the concentration of the test drug required to inhibit the cell growth by 50% (IC50) values is generated from the dose–response curves for each one of the cell lines (Meerloo et al. [2011]).
(§2) The test compounds were screened for their in vitro cytotoxicity by MTT assay against two cancer cell lines, namely MCF-7, HCT-116 and normal epithelial kidney cells (Vero). Doxorubicin was used as a reference standard.

HCT-116 cells = experiment: Apoptosis detection by propidium iodide / Annexin V-FITC; assay type: cell-based, Human; set-up: FACS analysis of apoptosis detection, Viable cells / FACS analysis of apoptosis detection, Early apoptotic / FACS analysis of apoptosis detection, Late apoptotic / FACS analysis of apoptosis detection, Necrotic: unit not given here; conditions: 20 μM
Experimental: The day before induction of apoptosis, 1 × 10^6cells per well were plated on a 6-well plate using respective media with 10% FBS and 1% PenStrep, incubated overnight at 37 °C at 5% CO2.The media was replaced with test solutions of different concentrations in the media containing 10% FBS. The treated cells were incubated for 24 h at normal culture conditions. The cells were further harvested and the well contents were completely transferred into the sterile FACS tubes. The cell contents were centrifuged at 2000 rpm for 5 min and the supernatant was discarded. After centrifugation, the cells were washed twice with cold PBS and then resuspended in 1 ml of binding buffer at a concentration of 1× 10^6 cells/ml. […] of the cell suspension (5× 10^5 cells) were then transferred into a fresh FACS tube (Vermes et al. [1995]). Further, cells were gently mixed with […] of propidium iodide and […] of Annexin V before being incubated for 20 minutes at room temperature in the dark. The cells were immediately analyzed by flow cytometer within a duration of an hour.

[1] = test system: normal epithelial kidney cells (Vero); experiment: MTT cytotoxicity assay on Vero; assay type: cell-based; conditions: Chlorocebus sabaeus, Vero, 24 h, read-out: Inhibition of cell proliferation, IC50, Vero
Experimental: as §1, §2

MCF-7 = experiment: MTT cytotoxicity assay on MCF-7; assay type: cell-based; conditions: Homo sapiens, MCF7, 24 h, read-out: Inhibition of cell proliferation, IC50, MCF-7
Experimental: as §1, §2

[2] = test system: MCF-7 and HCT 116 cell lines; experiment: MTT cytotoxicity, IC50 range stated over MCF-7 and HCT 116; assay type: cell-based; conditions: range over both cell lines; read-out: Cytotoxic activity IC50 range against MCF 7 and HCT 116
Experimental: as §1, with “[2011]). […]” for “[2011]).”

CDK2/Cyclin A = CDK2/Cyclin A (Homo sapiens, UniProt P24941); experiment: CDK2/cyclin A inhibitory assay, Z'-LYTE FRET kinase assay; assay type: biochemical; conditions: concentration of 100 micro molar; 1000 ng/ml kinase, 1000 µM ATP
From the text: Z’-LYTE® technology involves homogeneous assay design based on FRET and is a universal platform for both screening as well as profiling protein kinases. The assay uses a peptide substrate labeled with two different fluorophores, coumarin donor and fluorescein acceptor on each end. These two fluorophores make up a FRET pair, which allows the transfer of energy when both are present on the same molecule. The initial kinase reaction transfers the ϒ-phosphate of ATP to a tyrosine or serine/threonine residue on the substrate. In a secondary reaction, referred to as the development reaction, a site-specific protease recognizes and cleaves only non-phosphorylated peptide, while phosphorylated substrate remains uncleaved. […] Upon excitation of Coumarin at 400 nm, the FRET signal is measured as a ratio between the Coumarin donor emission at 445–460 nm and the fluorescein acceptor emission at 520–535 nm(Lebakken et al. [2007]).
Initial ten-fold and two-fold dilutions of Kinase and ATP concentrations were used to choose the optimal Kinase and ATP concentration based on the % Phosphorylation.
The assay was carried out according to the kit instructions (384 well format). Briefly, 5X kinase buffer [250 mM HEPES (pH 7.5), 50 mM MgCl2, 5 mM EGTA, 0.05% BRIJ-35] was diluted to 1X using distilled water. The phosphor peptide positive control (Z’-LYTE® Tyr 4 phospho-peptide) and the non-phosphorylated negative control (Z’-LYTE® Tyr 4 peptide) were then diluted to 1:500 with 1× kinase buffer to 2 μM. […] Working development solution was then made by diluting 12 μL of the provided stock solution with 388 μL of the provided development buffer. Aliquots (20 μL) of each peptide mixture were then added to the wells of a Corning 3914 solid white microplate in replicates of 8. The development reaction was initiated by the addition of 10 μL of working development-solution to all the wells. Further, the plates were allowed to incubate at room temperature for 60 min. Reactions were then stopped by the addition of 10 μL of stop solution (Jia et al. [2008]).
Reactions were quantitated using a Tecan Robotic Microplate Reader. Reader control, blank subtraction, ratio metric calculations and finally graph plotting were carried out using Gen5™ Data Analysis Software.
The CDK2/Cyclin A assay was carried out as per the manufacturer’s instruction using suitable controls and standard.
The inhibitory assay was carried out using the stock of 10 mM in DMSO. Samples were further serially diluted to obtain concentrations of 100 μM. The concentrations were chosen based on the IC50 values obtained in the MTT assay. A total of 23 analogues were selected for the assay based on their antiproliferative activity. Further, selected compounds were screened and tested against the target CDK2/Cyclin A, and their % phosphorylation and % inhibition were recorded.

[3] = ABTS.+ radical scavenging assay
Experimental: The assay was performed in a 96-well plate by serial dilution method. A 2 mM ABTS^.+ working solution was prepared in a phosphate buffer (Zheleva-Dimitrova et al [2010]).To this, 200 μL of aqueous potassium per sulfate (70 mM) solution was added and the solution was incubated for 24 h in the dark at room temperature to develop a blue-green color. To 30 μL of ABTS^.+ working solution, 50 μL of different concentrations (3.9–1000 μM) of the test sample solution and 170 μL of phosphate buffer (pH-7.4) were added in a well. The plate was then incubated in the dark at room temperature for 10 min. Then absorbance was measured at 690 nm using Elisa reader. Quercetin and ascorbic acid were used as standards. The percentage scavenging of ABTS^.+ was calculated using the formula, (Control Absorbance–Test Absorbance)*100/(Control Absorbance) and the anti-oxidant activity was expressed in terms of IC50 value.

[4] = DPPH. free radical scavenging assay
Experimental: DPPH. assay was performed using 96-well plate by serial dilution method. The dilution of methanolic stock solution of the test compounds and standard anti-oxidants was carried out to obtain concentration in the range of 3.9–1000 µM. Quercetin and ascorbic acid were used as standards. To a 100 μL of this solution, 100 μL of 200 µM DPPH^. in methanolic solution was added. The experiment was done in triplicate and the plate was then incubated for 30 min in the dark and later the absorbance was measured at 517 nm using Elisa reader. The percentage DPPH^. Scavenging was calculated using the formula, (Control Absorbance–Test Absorbance)*100/(Control Absorbance). The anti-oxidant activity of the test compounds was expressed in terms of concentration required for 50 percentage inhibition (IC50) (Collins [2005]).

SMILES | percentage cell population G2/M phase (HCT 116 cell lines) | percentage cell population GO/G1 phase (HCT 116 cell lines) | percentage cell population S phase (HCT 116 cell lines) | IC50 (HCT 116) [µM] | FACS analysis of apoptosis detection, Early apoptotic (HCT-116 cells) | FACS analysis of apoptosis detection, Late apoptotic (HCT-116 cells) | FACS analysis of apoptosis detection, Necrotic (HCT-116 cells) | FACS analysis of apoptosis detection, Viable cells (HCT-116 cells) | apoptotic index (HCT-116 cells) [%] | IC50 [1] [µM] | IC50 (MCF-7) [µM] | IC50 [2] [µM] | % inhibition on CDK2/cyclin A (CDK2/Cyclin A) [%] | IC50 [3] [µM] | IC50 [4] [µM]
COc1cc2c(c(OC)c1OC)-c1ccc(OC)c(=O)cc1[C@@H](NC(C)=O)CC2 [Colchicine, reference compound] | 43.78 | 47.39 | 8.61 |  |  |  |  |  |  |  |  |  |  |  | 
COc1cccc2c1C(=O)c1c(O)c3c(c(O)c1C2=O)C[C@@](O)(C(=O)CO)C[C@@H]3O[C@H]1C[C@H](N)[C@H](O)[C@H](C)O1 [Doxorubicin, reference compound] |  |  |  | 8.11 | 4.44 | 26.61 | 19.86 | 49.09 | 26.61 | 165 | 0.68 |  |  |  | 
COc1cc(OC)c(C2=CCN(C)CC2)c2c1C(=O)/C(=C/c1ccccc1Br)O2 [NMA2] |  |  |  | 34.9 |  |  |  |  |  | 154 | 26.8 | 21.2 to 44 | 35.350 | 66.5 ± 2.02 | 83.2 ± 6.42
